# Biological target: p97 (Homo sapiens (Human), UniProt P55072)
# Test: P97 ATPase biochem assay (ADP Glo)
# Assay type: biochemical
# Conditions: 20 nM p97, 20 μM ATP, 37° C., 15 minutes; read-out: p97 biochem IC50
# Procedure: The ATPase assay is performed according the following protocol: Purified enzyme (20 nM p97), substrate (20 μM ATP) and a dose titration of compounds are mixed in buffer (50 mM TRIS pH 7.5, 20 mM MgCl2, 0.02% TX-100, 1 mM DTT, 0.2% (v/v) glycerol) and incubated at 37° C. for 15 minutes. The reaction is terminated and the level of product generated is measured using the ADP Glo Assay Kit (Promega, Madison Wis.). Plotting product generated versus compound concentration and using a four-parameter fit model generates an IC50 value for each compounds.
# Chain of p97 (P55072 whole entry): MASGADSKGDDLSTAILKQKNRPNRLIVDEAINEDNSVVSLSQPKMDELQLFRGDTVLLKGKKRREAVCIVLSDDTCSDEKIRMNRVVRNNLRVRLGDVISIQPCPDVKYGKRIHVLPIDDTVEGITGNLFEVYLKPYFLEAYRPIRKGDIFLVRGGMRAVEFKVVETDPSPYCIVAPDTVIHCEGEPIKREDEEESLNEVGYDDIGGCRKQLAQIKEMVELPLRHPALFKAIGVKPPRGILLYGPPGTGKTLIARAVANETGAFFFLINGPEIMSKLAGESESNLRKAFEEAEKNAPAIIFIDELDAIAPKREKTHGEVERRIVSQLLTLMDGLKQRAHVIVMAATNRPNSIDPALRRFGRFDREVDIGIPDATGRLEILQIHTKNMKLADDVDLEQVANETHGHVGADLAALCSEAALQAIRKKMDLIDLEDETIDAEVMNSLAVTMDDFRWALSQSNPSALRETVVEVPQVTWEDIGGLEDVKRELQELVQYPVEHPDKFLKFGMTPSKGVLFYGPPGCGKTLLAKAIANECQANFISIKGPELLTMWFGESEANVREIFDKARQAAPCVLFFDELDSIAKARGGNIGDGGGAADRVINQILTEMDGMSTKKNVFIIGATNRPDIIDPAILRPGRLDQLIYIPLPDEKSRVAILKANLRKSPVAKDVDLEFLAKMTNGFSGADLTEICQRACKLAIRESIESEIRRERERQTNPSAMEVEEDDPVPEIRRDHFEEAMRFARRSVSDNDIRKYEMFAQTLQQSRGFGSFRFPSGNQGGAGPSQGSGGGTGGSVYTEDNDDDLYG
row,IC50 [nM],SMILES
1,< 25000,COc1cccc2c(NCc3ccccc3)nc(CCc3ccccc3)nc12
2,< 10000,COc1cccc2c(NCc3ccccc3)nc(CCC(C)C)nc12
3,< 5000,COc1cccc2c(NCc3ccccc3)nc(N3CCOc4ccccc43)nc12
4,< 10000,COc1cccc2c(NCc3ccccc3)nc(-n3c(N)nc4cccc(F)c43)nc12
5,< 2000,COc1cccc2c(NCc3ccccc3)nc(-n3c(C)nc4ccccc43)nc12
6,< 2000,COc1cccc2c(NCc3ccccc3)nc(-n3cnc4ccccc43)nc12
7,< 2000,COc1cccc2c(NCc3ccccc3)nc(-n3c(OC)nc4ccccc43)nc12
8,< 10000,COc1cccc2c(NCc3ccccc3)nc(Nc3ccccn3)nc12
9,< 25000,COc1cccc2c(NCc3nccs3)nc(-n3c(N)nc4ccccc43)nc12
10,< 2000,NCCOc1cccc2c(NCc3ccccc3)nc(-n3c(N)nc4ccccc43)nc12
11,< 2000,COCCOc1cccc2c(NCc3ccccc3)nc(-n3c(N)nc4ccccc43)nc12
12,< 2000,NC(=O)COc1cccc2c(NCc3ccccc3)nc(-n3c(N)nc4ccccc43)nc12
13,< 2000,COCc1cccc2c(NCc3ccccc3)nc(-n3c(N)nc4ccccc43)nc12
14,< 2000,Cc1cc2ccccc2n1-c1nc(NCc2ccccc2)c2cccc(CN)c2n1
15,< 25000,CN(C)Cc1cccc2c(NCc3ccccc3)nc(-n3c(N)nc4ccccc43)nc12
16,< 2000,COc1nc2ccccc2n1-c1nc(NCc2ccccc2)c2ncsc2n1
17,< 2000,COc1cccc2c(NCc3ccccc3)nc(-n3c(CN)cc4ccccc43)nc12
18,< 2000,COc1cccc2c(NCc3ccccc3)nc(-n3ccc4ccccc43)nc12
19,< 10000,COc1cccc2c(NCc3ccccc3)nc(-n3cc(C)c4ccccc43)nc12
20,< 2000,COc1cccc2c(NCc3ccccc3)nc(-c3c(C)oc4ccccc34)nc12
21,< 2000,Cc1cc2ccccc2n1-c1nc(NCc2ccccc2)c2cccc(C(N)=O)c2n1

row,IC50 [nM],SMILES
1,< 2000,Cc1cc2ccccc2n1-c1nc2c(c(NCc3ccccc3)n1)COC2
2,< 2000,Cc1cc2ccccc2n1-c1nc(NCc2ccccc2)c2cccc(C#N)c2n1
3,< 2000,Cc1cc2ccccc2n1-c1nc2c(c(NCc3ccccc3)n1)CCN(C(=O)OC(C)(C)C)C2
4,< 2000,CC(=O)N1Cc2nc(-n3c(C)cc4ccccc43)nc(NCc3ccccc3)c2C1
5,< 2000,CC(=O)N1CCc2nc(-n3c(C)cc4ccccc43)nc(NCc3ccccc3)c2C1
6,< 2000,CC(=O)N1CCc2c(nc(C3C(C)=Cc4ccccc43)nc2NCc2ccccc2)C1 (stereo not drawn)
7,< 2000,COc1cc2ccccc2n1-c1nc(NCc2ccccc2)c2c(n1)C(=O)N(C(=O)OC(C)(C)C)CC2
8,< 2000,Cc1cc2ccccc2n1-c1nc2c(c(NCc3ccccc3)n1)CCCC2
9,< 5000,CCc1cc2ccccc2n1-c1nc2c(c(NCc3ccccc3)n1)CCCC2
10,< 2000,CC(N)c1cc2ccccc2n1-c1nc2c(c(NCc3ccccc3)n1)CCCC2 (stereo not drawn)
11,< 2000,COCCOc1cccc2c(NCc3ccccc3)nc(C3C(ON)=Nc4ccccc43)nc12 (stereo not drawn)
12,< 2000,C=CC(=O)NCc1cc2ccccc2n1-c1nc(NCc2ccccc2)c2cccc(OC)c2n1
13,< 2000,CCc1nc2ccccc2n1-c1nc(NCc2ccccc2)c2cccc(OC)c2n1
14,< 2000,COCc1cc2ccccc2n1-c1nc2c(c(NCc3ccccc3)n1)CCCC2
15,< 2000,CC(=O)C1CCc2c(nc(-n3c(CN)cc4ccccc43)nc2NCc2ccccc2)C1 (stereo not drawn)
16,< 2000,CCN1CCc2c(nc(-n3c(CN)cc4ccccc43)nc2NCc2ccccc2)C1
17,< 2000,COC(=O)N1CCc2c(nc(-n3c(CN)cc4ccccc43)nc2NCc2ccccc2)C1
18,< 2000,NCc1cc2ccccc2n1-c1cc(NCc2ccccc2)c2c(n1)CN(C(N)=O)CC2
19,< 2000,CS(=O)(=O)N1CCc2c(nc(-n3c(CN)cc4ccccc43)nc2NCc2ccccc2)C1
20,< 10000,CNCCN1CCc2c(nc(-n3c(CN)cc4ccccc43)nc2NCc2ccccc2)C1
21,< 10000,CNCC(=O)N1CCc2c(nc(-n3c(CN)cc4ccccc43)nc2NCc2ccccc2)C1

# From US9062026B2, “Fused pyrimidines and substituted quinazolines as inhibitors of p97” (Cleave Biosciences, Inc., priority 2012, dated 2015)
